Results taken from patent US4440757A, “Pharmaceutical composition comprising derivative of aminobenzoic acid for regulating prostaglandin” (priority 1978, dated 1984).

Legend:
Ehrlich cancer cells [1] = assay: Cyclic AMP and cyclic GMP in cancer cells of cancer-bearing mouse; format: in vivo, female ICR/JCL mice; conditions: 200 mg/kg/day i.p., 5 days
Description: Ehrlich cancer cells were transplanted into the abdominal cavity of female ICR/JCL mice after 5 weeks of birth at a rate of 1×10^6, cells/animal, and while feeding the mice, the present substance, Specimen No. 7, was intraperitoneally administered to the mice every day from the next day of transplantation for 5 days at a rate of 200 mg/kg/day. On the 6th day, the mice were sacrificed with ether to collect each 5 ml of ascites. After adding tetrasodium ethylenediamminetetraacetate into the thus collected ascites, the mixture was centrifugated for 10 min at a temperature of 4° C. and 1,500 rpm to separate the supernatant liquid and the cancer cells. The supernatant liquid was again centrifugated at 4° C. and 3,000 rpm for 15 min. The separated cancer cells were washed with Hank's solution and then subjected to repeated centrifugation for 5 times at 800 rpm for each 5 min to remove impurities such as erythrocytes, etc. After homogenizing 1×10^8 cells of the cancer in 3 ml of an aqueous 6% solution of trichloroacetic acid at a temperature of 0° C., the homogenate was centrifugated for 20 min at 3000XG to obtain a liquid extract. After adding 10% by weight of an aqueous 1 N solution of hydrochloric acid to the liquid extract, it was extracted 5 times with each two times by volume of ether to remove trichloroacetic acid. […]

Ehrlich cancer cells [2] = assay: PGE in cancer cells and ascites of mouse transplanted with Ehrlich cancer cells; format: in vivo, female ICR-JCL mouse; conditions: 200 mg/kg/day i.p., 5 days
Description: To groups of female ICR-JCL mouse after 5 weeks of her birth, Ehrlich cancer cells were intraperitoneally transplanted at a rate of 1×10^6 cells/animal and one of the present substances, Specimen No. 7 was administered intraperitoneally to the mice every day from the next day of transplantation for 5 days at a rate of 200 mg/kg/day. The mice were sacrificed with ether on the 6th day of transplantation, and the ascites were collected. After adding tetrasodium ethylenediamminetetraacetate with 1% by weight of aspirin into the ascites, it was centrifugated for 10 min at 1500 rpm and a temperature of 4° C. to separate the cancer cells and the supernatant liquid. The supernatant liquid was further centrifugated at 4° C. and 3000 rpm for 15 min. The separated cancer cells was washed with Hank's solution, and was subjected to centrifugation 5 times at 800 rpm for each 5 min to remove impurities such as erythrocytes, etc. The thus purified cancer cells of 1×10^8 in number were homogenized at 0° C. after addition of 7 ml of methanol, and the homogenate was filtered with filter paper. After adding 14 ml of chloroform to the filtrate and mixing, the mixture was left for 30 min at a temperature of 4° C. […] The content of PGE in the solution and in the supernatant liquid of the ascites was determined by ^3 H-ProstaglandinE Radioimmunoassay Kit. […]

Ehrlich's cancer cell = assay: PGE in Ehrlich tumour and tumour weight (oral); format: in vivo, female C57BL/6 mouse; conditions: 1 g/kg/day oral
Description: Ehrlich's cancer cell were transplanted subcutaneously to groups of female C57BL/6 mouse after 8 weeks of her birth and while feeding the mice, the present substance, Specimen No. 7, was orally administered to each mouse every day at a rate of 1 g/kg/day. On 7th or 14th day of the transplantation, the mice were sacrificed with ether to extirpated the tumour. The tumour was treated by the same procedures as in Example 11 to determine the content of PGE therein. The concentration of PGE in the tumour was larger in the animal transplanted with the cells and administered with the present substance than in the control to which the same cells were transplanted but the present substance was not administered. Further it is observed that the content of PGE decreased in both groups as the time passed, and the rate of decrease was smaller in the group transplanted and administered than in the control group transplanted but not administered. These facts give the information that the present substance participates to the metabolism of PGE.

Sato's lung cancer = assay: Translocation of dye-staff to Sato's lung cancer; format: in vivo, donryu rat; conditions: 1000 mg/kg p.o. once; control 30.0
Description: On the back of a donryu rat, a lump of Sato's lung cancer of 5 mm in size was subcutaneously transplanted.
On the axillary part of an ICR mouse, 10^6 cells of sarcoma 180 were subcutaneously transplanted. While feeding the both animals, the present substance, Specimen No. 7, was forcibly administered orally once at a rate of 1000 mg/kg on 16th day of the transplantation and an aqueous 2% solution of Lissamine Green (a dye-staff manufactured by Imperial Chem. Ind. Co.) was injected into the caudal vein of the animal at a rate of 1 ml for a rat and 0.5 ml for a mouse.
After one hour of the injection, the animal was sacrificed to extirpate the proliferated tumour. The tumour of the rat was finely cut and homogenized with an aqueous 50% solution of ethanol. After diluting the homogenate with an addition of the solution to a total volume of 50 ml, the liquid was centrifugated for 15 min at 1000 rpm to separate the supernatant liquid. The content of the dye-staff was determined on the supernatant liquid itself or after dilution by spectrophotometry using its absorption maximum of 630 nm.

O=C(O)c1ccc(NC2OC[C@@H](O)[C@H](O)[C@H]2O)cc1 (stereo partly drawn) [Specimen No. 7, Sodium p-aminobenzoate-N--D-xyloside]
GMP per 10^8 cancer cells (Ehrlich cancer cells [1]; control 0.59): 0.72 pM
Cyclic AMP per 10^8 cancer cells (Ehrlich cancer cells [1]; control 19.5): 21.2 pM
Content of PGE in supernatant liquid of ascites (Ehrlich cancer cells [2]; control 0.26): 0.12 ng
Content of PGE in 10^8 cells (Ehrlich cancer cells [2]; control 2.36): 3.06 ng
Weight of tumour (Ehrlich's cancer cell; 7th day, control 0.09): 0.08 g
Content of PGE in the tumour (Ehrlich's cancer cell; 7th day, control 2.59): 2.80 ng/g
Weight of tumour (Ehrlich's cancer cell; 14th day, control 0.84): 0.67 g
Content of PGE in the tumour (Ehrlich's cancer cell; 14th day, control 1.16): 1.65 ng/g
Amount of dye-staff (Sato's lung cancer): 51.0 μg/g tumour
